One assay deals with T1, hCRHR1 (Homo sapiens, UniProt P34998).
T1 sequence (P34998 24-415): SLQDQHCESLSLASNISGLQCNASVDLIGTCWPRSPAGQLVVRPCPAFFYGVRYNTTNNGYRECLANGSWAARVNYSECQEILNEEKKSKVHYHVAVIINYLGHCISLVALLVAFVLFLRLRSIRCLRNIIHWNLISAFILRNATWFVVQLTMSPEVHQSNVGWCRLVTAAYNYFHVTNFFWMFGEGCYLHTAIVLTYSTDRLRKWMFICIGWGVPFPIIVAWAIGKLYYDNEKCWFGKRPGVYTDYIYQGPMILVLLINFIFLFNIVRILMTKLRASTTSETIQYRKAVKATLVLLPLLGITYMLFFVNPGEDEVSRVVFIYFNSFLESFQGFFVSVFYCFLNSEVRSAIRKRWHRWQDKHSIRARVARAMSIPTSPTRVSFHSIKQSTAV
Nature of the assay: HTRF cAMP assay, determination of hCRHR1 potency (peptide libraries 5 conc., purified peptides 11 conc.). The class given is cell-based. From the text:
HTRF (CisBio) cAMP assay: The assay technology has thoroughly been described in the CisBio HTRF cAMP assay Kit manual (# 62AM4PEC). Briefly, time resolved fluorescence technic was applied to measure cAMP. This technic is based on a competitive immunoassay using cryptate-labelled anti-cAMP antibody and d2-labeled cAMP. In the absence of cellular cAMP, the anti-cAMP cryptate conjugate may get into proximity to cAMP-d2 conjugate and energy (FRET) can be transferred from cryptate to d2. CHO-K1 cells stably expressing the human corticotropin-releasing hormone receptor 1 (Eurofins/DiscoverX Cat #95-0047C2 hCRHR1 stable monoclonal cell lines) were used as cells in suspension, brought to life from frozen cell stocks immediately before assay performance. […] Concentration-response evaluation of compounds was performed with 5 concentrations of agonist peptides and EC50 values were calculated by nonlinear regression using sigmoid concentration-response with variable slope. Concentration-response evaluation of compounds was performed with 11 concentrations of agonist peptides and EC50 values were calculated by nonlinear regression using sigmoid concentration-response with variable slope.
On the technique in general: In TR-FRET formats the signal depends on donor and acceptor labels being close together.

The target of a further assay is T2, hCRHR2 (Homo sapiens, UniProt Q13324).
T2 sequence (Q13324 1-411): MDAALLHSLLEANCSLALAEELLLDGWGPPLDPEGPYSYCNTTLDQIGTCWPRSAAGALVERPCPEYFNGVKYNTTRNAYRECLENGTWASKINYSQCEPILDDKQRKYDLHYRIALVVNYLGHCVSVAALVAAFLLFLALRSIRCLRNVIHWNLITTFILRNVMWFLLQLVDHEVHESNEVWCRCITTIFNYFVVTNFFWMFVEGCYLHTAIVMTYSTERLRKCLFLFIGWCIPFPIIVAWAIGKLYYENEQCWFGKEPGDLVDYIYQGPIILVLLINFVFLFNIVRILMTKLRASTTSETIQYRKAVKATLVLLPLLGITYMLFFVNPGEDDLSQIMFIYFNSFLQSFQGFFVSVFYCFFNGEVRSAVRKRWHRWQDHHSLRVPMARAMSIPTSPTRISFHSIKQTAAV
Nature of the assay: HTRF cAMP assay, determination of hCRHR2 potency (peptide libraries 5 conc., purified peptides 11 conc.). The class given is cell-based. From the text:
HTRF (CisBio) cAMP assay: The assay technology has thoroughly been described in the CisBio HTRF cAMP assay Kit manual (# 62AM4PEC). Briefly, time resolved fluorescence technic was applied to measure cAMP. This technic is based on a competitive immunoassay using cryptate-labelled anti-cAMP antibody and d2-labeled cAMP. In the absence of cellular cAMP, the anti-cAMP cryptate conjugate may get into proximity to cAMP-d2 conjugate and energy (FRET) can be transferred from cryptate to d2.
CHO-K1 cells stably expressing the human corticotropin-releasing hormone receptor 2 (Eurofins/DiscoverX, Cat #95-0048C2 hCRHR2 stable monoclonal cell lines) were used as cells in suspension, brought to life from frozen cell stocks immediately before assay performance.
Concentration-response evaluation of compounds was performed with 5 concentrations of agonist peptides and EC50 values were calculated by nonlinear regression using sigmoid concentration-response with variable slope.
Concentration-response evaluation of compounds was performed with 11 concentrations of agonist peptides and EC50 values were calculated by nonlinear regression using sigmoid concentration-response with variable slope.

The mark [1] stands for this setting: Table 3, matched molecular pairs X^38 L vs Nle, peptide library of Example 4, read-out: hCRHR1 pEC50 (converted).
[2] abbreviates: Table 3, matched molecular pairs X^38 L vs Nle, peptide library of Example 4, read-out: hCRHR2 pEC50 (converted).

Like-named read-outs stand apart in the source and are kept apart here. Starred links: 1 amine or outer side, 2 acyl side, 3 side chain; linkers in the order of their positions; H or OH if unused. Non-standard residues stand in square brackets, D forms with d. Residues, ends and D or L forms follow the SMILES beside them. Groups on a side chain read outwards from the residue. *: point of attachment. C20 diacid = O=C(O)CCCCCCCCCCCCCCCCCCC(=O)*; γGlu = O=C(O)[C@H](CCC(=O)[*:2])N[*:1]; NMeI = CC[C@H](C)[C@H](NC)C(=O)O; Nle = CCCC[C@H](N)C(=O)O; AEEA = NCCOCCOCC(=O)O; Aib = CC(C)(N)C(=O)O

Turning to `CC[C@H](C)[C@H](N)C(=O)N[C@H](C(=O)N[C@@H](CC(C)C)C(=O)N[C@@H](CO)C(=O)N[C@@H](CC(C)C)C(=O)N[C@@H](CC(=O)O)C(=O)N[C@H](C(=O)N1CCC[C@H]1C(=O)N[C@H](C(=O)NCC(=O)N[C@@H](CC(C)C)C(=O)N[C@@H](CC(C)C)C(=O)N[C@@H](CCC(N)=O)C(=O)N[C@H](C(=O)N[C@@H](CC(C)C)C(=O)N[C@@H](CC(C)C)C(=O)N[C@@H](CCC(=O)O)C(=O)N[C@@H](CCC(N)=O)C(=O)N[C@@H](C)C(=O)N[C@@H](CCCNC(=N)N)C(=O)N[C@@H](C)C(=O)N[C@@H](CCCNC(=N)N)C(=O)N[C@@H](C)C(=O)N[C@@H](C)C(=O)N[C@@H](CCCNC(=N)N)C(=O)N[C@@H](CCC(N)=O)C(=O)N[C@@H](CCC(N)=O)C(=O)N[C@@H](C)C(=O)N[C@@H](CCCCNC(=O)COCCOCCNC(=O)COCCOCCNC(=O)CC[C@H](NC(=O)CC[C@H](NC(=O)CCCCCCCCCCCCCCCCCCC(=O)O)C(=O)O)C(=O)O)C(=O)N[C@H](C(=O)N[C@@H](CC(N)=O)C(=O)N[C@@H](C)C(=O)N[C@@H](CCC(=O)O)C(=O)N[C@H](C(=O)N[C@@H](CC(C)C)C(=O)N[C@@H](C)C(=O)N[C@@H](CCC(=O)O)C(=O)N[C@H](C(N)=O)[C@@H](C)CC)[C@@H](C)CC)[C@@H](C)O)[C@@H](C)CC)[C@@H](C)CC)C(C)C)C(C)C` [SEQ ID NO: 27] (H-IVLSLDVPIGLLQILLEQARARAARQQAK([AEEA-AEEA-γGlu-γGlu-C20 diacid])TNAEILAEI-NH2), the EC50 is 63100 nM at hCRHR1 (setting [1]) and 0.316 nM at hCRHR2 (setting [2]).

In the case of `CC[C@H](C)[C@H](N)C(=O)N[C@H](C(=O)N[C@@H](CC(C)C)C(=O)N[C@@H](CO)C(=O)N[C@@H](CC(C)C)C(=O)N[C@@H](CC(=O)O)C(=O)N[C@H](C(=O)N1CCC[C@H]1C(=O)N[C@H](C(=O)NCC(=O)N[C@@H](CC(C)C)C(=O)N[C@@H](CC(C)C)C(=O)N[C@@H](CCC(N)=O)C(=O)N[C@H](C(=O)N[C@@H](CC(C)C)C(=O)N[C@@H](CC(C)C)C(=O)N[C@@H](CCC(=O)O)C(=O)N[C@@H](CCC(N)=O)C(=O)N[C@@H](C)C(=O)N[C@@H](CCCNC(=N)N)C(=O)N[C@@H](C)C(=O)N[C@@H](CCCNC(=N)N)C(=O)N[C@@H](C)C(=O)N[C@@H](CCC(N)=O)C(=O)N[C@@H](CCCNC(=N)N)C(=O)N[C@@H](CCC(=O)O)C(=O)N[C@@H](CCC(N)=O)C(=O)N[C@@H](C)C(=O)N[C@@H](CCCCNC(=O)COCCOCCNC(=O)COCCOCCNC(=O)CC[C@H](NC(=O)CC[C@H](NC(=O)CCCCCCCCCCCCCCCCCCC(=O)O)C(=O)O)C(=O)O)C(=O)N[C@H](C(=O)N[C@@H](CC(N)=O)C(=O)N[C@@H](C)C(=O)N[C@@H](CCC(=O)O)C(=O)N[C@H](C(=O)N[C@@H](CC(C)C)C(=O)N[C@@H](C)C(=O)N[C@@H](CCC(=O)O)C(=O)N[C@H](C(N)=O)C(C)C)[C@@H](C)CC)[C@@H](C)O)[C@@H](C)CC)[C@@H](C)CC)C(C)C)C(C)C` [compound 56] (H-IVLSLDVPIGLLQILLEQARARAQREQAK([AEEA-AEEA-γGlu-γGlu-C20 diacid])TNAEILAEV-NH2), the EC50 was 3160 nM at hCRHR1 (library peptides, matched molecular pairs L vs Nle in position X^38, read-out: Potency hCRHR1 pEC50 (converted)) and 0.398 nM on hCRHR2 (library peptides, matched molecular pairs L vs Nle in position X^38, read-out: Potency hCRHR2 pEC50 (converted)).

With `CCCC[C@H](NC(=O)[C@@H](NC(=O)[C@H](CCC(=O)O)NC(=O)C(C)(C)NC(=O)[C@H](CC(N)=O)NC(=O)[C@@H](NC(=O)[C@H](CCCCNC(=O)COCCOCCNC(=O)COCCOCCNC(=O)CC[C@H](NC(=O)CC[C@H](NC(=O)CCCCCCCCCCCCCCCCCCC(=O)O)C(=O)O)C(=O)O)NC(=O)[C@H](C)NC(=O)[C@H](CCC(N)=O)NC(=O)[C@H](CCC(=O)O)NC(=O)[C@H](CCCNC(=N)N)NC(=O)[C@H](C)NC(=O)[C@H](C)NC(=O)[C@H](CCCNC(=N)N)NC(=O)[C@H](C)NC(=O)[C@H](CCCNC(=N)N)NC(=O)[C@H](C)NC(=O)[C@H](CCC(N)=O)NC(=O)[C@H](C)NC(=O)[C@H](CC(C)C)NC(=O)[C@H](CC(C)C)NC(=O)[C@@H](NC(=O)[C@H](CCC(N)=O)NC(=O)[C@H](CC(C)C)NC(=O)[C@H](CC(C)C)NC(=O)CNC(=O)[C@@H](NC(=O)[C@@H]1CCCN1C(=O)[C@@H](NC(=O)[C@H](CC(=O)O)NC(=O)[C@H](CC(C)C)NC(=O)[C@H](CO)NC(=O)[C@H](CC(C)C)NC(=O)[C@@H](NC(=O)[C@@H](NC)[C@@H](C)CC)C(C)C)C(C)C)[C@@H](C)CC)[C@@H](C)CC)[C@@H](C)O)[C@@H](C)CC)C(=O)N[C@@H](C)C(=O)N[C@@H](CCC(=O)O)C(=O)N[C@H](C(N)=O)C(C)C` [compound 196] (H-[NMeI]VLSLDVPIGLLQILLAQARARAAREQAK([AEEA-AEEA-γGlu-γGlu-C20 diacid])TN[Aib]EI[Nle]AEV-NH2), the EC50 at hCRHR1 (Table 4, library peptides having X^38 = Nle, read-out: hCRHR1 pEC50 (converted)) was 1000 nM; on hCRHR2 (Table 4, library peptides having X^38 = Nle, read-out: hCRHR2 pEC50 (converted)), 0.0316 nM.

For `CCCC[C@H](NC(=O)[C@@H](NC(=O)[C@H](CCC(=O)O)NC(=O)[C@H](C)NC(=O)[C@H](CC(N)=O)NC(=O)[C@@H](NC(=O)[C@H](CCCCNC(=O)COCCOCCNC(=O)COCCOCCNC(=O)CC[C@H](NC(=O)CC[C@H](NC(=O)CCCCCCCCCCCCCCCCCCC(=O)O)C(=O)O)C(=O)O)NC(=O)[C@H](C)NC(=O)[C@H](CCC(N)=O)NC(=O)[C@H](CCC(N)=O)NC(=O)[C@H](CCCNC(=N)N)NC(=O)[C@H](CCC(N)=O)NC(=O)[C@H](C)NC(=O)[C@H](CCCNC(=N)N)NC(=O)[C@H](C)NC(=O)[C@H](CCCNC(=N)N)NC(=O)[C@H](C)NC(=O)[C@H](CCC(N)=O)NC(=O)[C@H](CCC(=O)O)NC(=O)[C@H](CC(C)C)NC(=O)[C@H](CC(C)C)NC(=O)[C@@H](NC(=O)[C@H](CCC(N)=O)NC(=O)[C@H](CC(C)C)NC(=O)[C@H](CC(C)C)NC(=O)CNC(=O)[C@@H](NC(=O)[C@@H]1CCCN1C(=O)[C@@H](NC(=O)[C@H](CC(=O)O)NC(=O)[C@H](CC(C)C)NC(=O)[C@H](CO)NC(=O)[C@H](CC(C)C)NC(=O)[C@@H](NC(=O)[C@@H](N)[C@@H](C)CC)C(C)C)C(C)C)[C@@H](C)CC)[C@@H](C)CC)[C@@H](C)O)[C@@H](C)CC)C(=O)N[C@@H](C)C(=O)N[C@@H](CCC(=O)O)C(=O)N[C@H](C(N)=O)C(C)C` [SEQ ID NO: 47] (H-IVLSLDVPIGLLQILLEQARARAQRQQAK([AEEA-AEEA-γGlu-γGlu-C20 diacid])TNAEI[Nle]AEV-NH2), the EC50 at hCRHR1 (setting [1]) is 63.1 nM; on hCRHR2 (setting [2]), 0.2 nM.

These data come from patent EP4810052A2, “HCRHR2 SELECTIVE POLYPEPTIDES” (Gubra A/S, priority 2023, dated 2026).
